# Where a name gives a salt, the structure may show the parent alone.
# Key:
# [1] = target: T1, dopamine D4 receptors in cloned human dopamine receptor subtype 4.2 membranes (Homo sapiens, UniProt P21917, DEL271-302); assay: 3H-YM-09151-2 binding (affinity for dopamine D4 receptors); conditions: 3H-YM-09151-2, cloned human D4.2 membranes; for IC50: * means that the test result is preliminary, read-out: D4-bind. IC50
# T1 sequence (P21917 with tags, fused parts or gaps DEL271-302): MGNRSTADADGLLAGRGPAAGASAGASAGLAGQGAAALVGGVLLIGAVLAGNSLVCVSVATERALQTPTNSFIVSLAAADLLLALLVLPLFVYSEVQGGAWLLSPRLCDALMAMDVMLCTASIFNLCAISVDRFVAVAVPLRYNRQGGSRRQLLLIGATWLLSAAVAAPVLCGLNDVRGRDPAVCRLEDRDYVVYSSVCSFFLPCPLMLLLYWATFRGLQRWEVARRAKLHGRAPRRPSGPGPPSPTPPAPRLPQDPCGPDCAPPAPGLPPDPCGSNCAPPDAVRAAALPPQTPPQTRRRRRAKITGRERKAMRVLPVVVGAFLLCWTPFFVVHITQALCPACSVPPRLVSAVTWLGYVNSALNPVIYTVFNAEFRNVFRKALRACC
# Procedure: By this method the inhibition by drugs of the binding of the dopamine D4 antagonist ^3H-YM-09151-2 to dopamine D4 receptors in cloned human dopamine receptor subtype 4.2 membranes is determined in vitro. Accordingly, this is a test for affinity for dopamine D4 receptors. The test is performed using a preparation of cloned dopamine D4 cell membranes CRM-016®, Dupharma A/S, Denmark, in accordance with the product specifications.
compound,measurement,setting,value
"c1ccc2c(c1)CC(CCN1CCC(n3ccc4ccccc43)CC1)C2 [Compound 29b, 1-[1-[2-(Indan-2-yl)ethyl]piperidin-4-yl]-1H-indole]",IC50,[1],2.2 nM
same,melting point,,80 to 81 °C
CC(=O)Nc1ccc2c(c1)C(CCN1CC=C(c3c[nH]c4cc(Cl)ccc34)CC1)CC2 (stereo not drawn) (as salt: oxalate) [Compound 18c],melting point,,153 to 155 °C
CC(=O)Nc1ccc2c(c1)CC(CN1CC=C(c3c[nH]c4cc(Cl)ccc34)CC1)C2 (stereo not drawn) (as salt: oxalate),melting point,,201 to 203 °C
"Clc1ccc2c(C3=CCN(CCC4Cc5ccccc5C4)CC3)c[nH]c2c1 [Compound 11g, 6-Chloro-3-[1-[2-(indan-2-yl)ethyl]-1,2,3,6-tetrahydropyridin-4-yl]-1H-indole]",IC50,[1],12 nM
same,melting point,,217 to 218 °C
"c1ccc2c(c1)CC(CN1CCN(c3ccc4[nH]ccc4c3)CC1)C2 (as salt: hydrochloride) [Compound 11f, 5-[4-(Indan-2-yl)methylpiperazin-1-yl]-1H-indole]",melting point,,263 to 265 °C
"C1=C(c2c[nH]c3cc4c(cc23)OCO4)CCN(CC2Cc3ccccc3C2)C1 [Compound 11e, 3-[1-(Indan-2-yl)methyl-1,2,3,6-tetrahydropyridin-4-yl]-5,6-methylenedioxy-1H-indole]",IC50,[1],16 nM
same,melting point,,192 to 193 °C
"Clc1ccc2c(C3CCN(CCC4Cc5ccccc5C4)CC3)c[nH]c2c1 [Compound 21f, 6-Chloro-3-[1-[2-(indan-2-yl)ethyl]piperidin-4-yl]-1H-indole]",IC50,[1],3.2 nM
same,melting point,,155 to 156 °C
"CC(=O)Nc1ccc2c(c1)CCC2CN1CC=C(c2c[nH]c3cc(Cl)ccc23)CC1 (stereo not drawn) (as salt: fumarate) [Compound 6d, 6-Chloro-3-[1-(5-acetylamino-1-indanylmethyl)-1,2,3,6-tetrahydropyridin-4-yl]-1H-indole]",melting point,,241 to 242 °C
"Clc1cccc2c(C3=CCN(CC4Cc5ccccc5C4)CC3)c[nH]c12 (as salt: oxalate) [Compound 11c, 7-Chloro-3-[1-(indan-2-yl)methyl-1,2,3,6-tetrahydropyridin-4-yl]-1H-indole]",melting point,,135 to 136 °C
"Clc1ccc2c(C3=CCN(CCCC4Cc5ccccc5C4)CC3)c[nH]c2c1 [Compound 11h, 6-Chloro-3-[1-[3-(indan-2-yl)propan-1-yl]-1,2,3,6-tetrahydropyridin-4-yl]-1H-indole]",IC50,[1],24 nM
same,melting point,,176 to 177 °C
CC(=O)Nc1ccc2c(c1)CC(CN1CCC(c3c[nH]c4cc(Cl)ccc34)CC1)C2 (stereo not drawn),melting point,,151 to 152 °C
"CC(=O)N1CC(CCCN2CC=C(c3c[nH]c4cc(Cl)ccc34)CC2)c2ccccc21 (stereo not drawn) (as salt: oxalate) [Compound 20k, 3-[1-[3-(1-Acetyl-2,3-dihydro-1H-indol-3-yl)propyl]-1,2,3,6-tetrahydropyridin-4-yl]-6-chloro-1H-indole]",melting point,,112 to 115 °C
"Fc1ccc2[nH]cc(C3=CCN(CCC4CCc5ccccc54)CC3)c2c1 (stereo not drawn) [Compound 8b, 5-Fluoro-3-[1-[2-(indan-1-yl)ethyl]-1,2,3,6-tetrahydropyridin-4-yl]-1H-indole]",IC50,[1],2.8 nM
same,melting point,,172 to 176 °C
"Clc1ccc2c(C3=CCN(CCCCC4Cc5ccccc5C4)CC3)c[nH]c2c1 [Compound 11i, 6-Chloro-3-[1-[4-(indan-2-yl)butan-1-yl]-1,2,3,6-tetrahydropyridin-4-yl]-1H-indole]",inhibition at 0.05 µM,"[1]; at 50 nM, read-out: D4-bind. % inhibition of binding at 50 nM",37%
same,melting point,,211 to 214 °C
"Clc1ccc2c(C3CCN(CC4Cc5ccccc5C4)CC3)c[nH]c2c1Cl [Compound 21d, 6,7-Dichloro-3-[1-(indan-2-ylmethyl)piperidin-4-yl]-1H-indole]",IC50,[1],3.9 nM
same,melting point,,141 to 142 °C
"Clc1ccc2c(C3CCN(CCCCC4CCc5ccccc54)CC3)c[nH]c2c1 (stereo not drawn) (as salt: oxalate) [Compound 8f, 6-Chloro-3-[1-[4-(indan-1-yl)butan-1-yl)-piperidin-4-yl]-1H-indole]",melting point,,206 to 208 °C
"c1ccc2c(c1)CC(CCN1CCN(c3ccc4[nH]ccc4c3)CC1)C2 (as salt: hydrochloride) [Compound 25b, 5-[4-[2-(Indan-2-yl)ethyl]piperazin-1-yl]-1H-indole]",melting point,,251 to 253 °C
"C1=C(c2c[nH]c3ccccc23)CCN(CC2Cc3ccccc3C2)C1 [Compound 11b, 3-[1-(Indan-2-yl)methyl-1,2,3,6-tetrahydropyridin-4-yl]-1H-indole]",IC50,[1],3 nM
same,melting point,,156 to 157 °C
CC(=O)Nc1cccc2c1CCC2CN1CC=C(c2c[nH]c3cc(Cl)ccc23)CC1 (stereo not drawn) [Compound 6c],IC50,[1],12 nM
same,melting point,,189 to 190 °C
"C1=C(n2ccc3ccccc32)CCN(CCC2Cc3ccccc3C2)C1 (as salt: oxalate) [Compound 28b, 1-[1-[2-(Indan-2-yl)ethyl]-1,2,3,6-tetrahydropyridin-4-yl]-1H-indole]",melting point,,176 to 178 °C
CC(C)Oc1cccc2c1CC(CN1CCC(c3c[nH]c4ccc(F)cc34)CC1)C2 (stereo not drawn) (as salt: oxalate),melting point,,181 to 189 °C
Clc1ccc2c(C3=CCN(CCCCC4CCc5ccccc54)CC3)c[nH]c2c1 (stereo not drawn) (as salt: oxalate) [Compound 8h],melting point,,191 to 192 °C
"Clc1ccc2c(C3CCN(CCCC4Cc5ccccc5C4)CC3)c[nH]c2c1 [Compound 21g, 6Chloro-3-[1-[3-(indan-2-yl)propan-1-yl]piperidin-4-yl]-1H-indole]",IC50,[1],7.2 nM
same,melting point,,134 to 135 °C
"Clc1ccc2c(C3=CCN(CCC4CCc5ccccc54)CC3)c[nH]c2c1 (stereo not drawn) [Compound 8a, 6-Chloro-3-[1-[2-(indan-1-yl)ethyl]-1,2,3,6-tetrahydropyridine-4-yl]-1H-indole]",IC50,[1],3.5 nM
same,melting point,,181 to 183 °C
"Fc1ccc2[nH]cc(C3=CCN(CCCCC4CCc5ccccc54)CC3)c2c1 (stereo not drawn) [Compound 8d, 5-Fluoro-3-[1-[4-(indan-1-yl)butan-1-yl]-1,2,3,6-tetrahydropyridin-4-yl]-1H-indole]",IC50,[1],20 nM
same,melting point,,172 to 176 °C
"Clc1ccc2c(C3=CCN(CC4Cc5ccccc5C4)CC3)c[nH]c2c1Cl [Compound 11d, 6,7-Dichloro-3-[1-(indan-2-yl)methyl-1,2,3,6-tetrahydropyridin-4-yl]-1H-indole]",IC50,[1],27 nM
same,melting point,,151 to 152 °C
"Clc1cccc2c(C3CCN(CC4Cc5ccccc5C4)CC3)c[nH]c12 (as salt: oxalate) [Compound 21c, 7-Chloro-3-[1-(indan-2-ylmethyl)piperidin-4-yl]-1H-indole]",melting point,,218 to 219 °C
COc1cc2c(cc1OC)CC(CN1CCC(c3c[nH]c4cc(Cl)ccc34)CC1)C2,melting point,,68 to 79 °C
"c1ccc2c(c1)CC(CN1CCC(c3c[nH]c4cc5c(cc34)OCO5)CC1)C2 [Compound 21e, 3-[1-(Indan-2-ylmethyl)piperidin-4-yl]-5,6-methylenedioxy-1H-indole]",IC50,[1],23 nM
same,melting point,,187 to 188 °C
"c1ccc2c(c1)CC(CN1CCC(c3c[nH]c4ccccc34)CC1)C2 [Compound 21b, 3-[1-(indan-2-ylmethyl)piperidin-4-yl]-1H-indole]",IC50,[1],2.1 nM
same,melting point,,146 to 147 °C
"Clc1ccc2c(C3=CCN(CC4CCc5ccc6[nH]ccc6c54)CC3)c[nH]c2c1 (stereo not drawn) [Compound 16a, 8-[4-(6-Chloro-1H-indol-3-yl)-1,2,3,6-tetrahydropyridin-1-ylmethyl]-3,6,7,8-tetrahydro-cyclopent[e]indole]",IC50,[1],6.2 nM
"CC(=O)Nc1ccc2c(c1)C(CCCCN1CC=C(c3c[nH]c4cc(Cl)ccc34)CC1)CC2 (stereo not drawn) [Compound 18e, 6-Chloro-3-[1-[4-(6-acetylaminoindan-1-yl)butan-1-yl]-1,2,3,6-tetrahydropyridin-4-yl]-1H-indole]",IC50,[1],66 nM
"Clc1cccc2c(C3CCN(CC4Cc5ccccc5C4)CC3)c[nH]c12 [Compound 21c, 7-Chloro-3-[1-(indan-2-ylmethyl)piperidin-4-yl]-1H-indole]",IC50,[1],1.8 nM
"O=CN1CC(CCN2CCC(c3c[nH]c4cc(Cl)ccc34)CC2)c2ccccc21 (stereo not drawn) [Compound 20d, 6-Chloro-3-[1-[2-(1-formyl-2,3-dihydro-1H-indol-3-yl)ethyl]piperidin-4-yl]-1H-indole]",IC50,[1],3 nM
"c1ccc2c(c1)CC(CCN1CCN(c3ccc4[nH]ccc4c3)CC1)C2 [Compound 25b, 5-[4-[2-(Indan-2-yl)ethyl]piperazin-1-yl]-1H-indole]",IC50,[1],5.3 nM
"CC(=O)Nc1ccc2c(c1)C(CCCN1CC=C(c3c[nH]c4cc(Cl)ccc34)CC1)CC2 (stereo not drawn) (as salt: oxalate) [Compound 18d, 6-Chloro-3-[1-[3-(6-acetylaminoindan-1-yl)propan-1-yl]-1,2,3,6-tetrahydropyridin-4-yl]-1H-indole]",melting point,,110 to 115 °C
"CC(=O)Nc1ccc2c(c1)C(CCCCN1CC=C(c3c[nH]c4cc(Cl)ccc34)CC1)CC2 (stereo not drawn) (as salt: oxalate) [Compound 18e, 6-Chloro-3-[1-[4-(6-acetylaminoindan-1-yl)butan-1-yl]-1,2,3,6-tetrahydropyridin-4-yl]-1H-indole]",melting point,,125 to 128 °C
CC(C)Oc1cccc2c1CC(CN1CCC(c3c[nH]c4cc(Cl)ccc34)CC1)C2 (stereo not drawn) (as salt: oxalate),melting point,,119 to 126 °C
